Legend:
[1] = Supersaturation monitoring in PEG 300; format: physicochemical
[2] = Equilibrium-solubility screening in solvents and excipients; format: physicochemical; conditions: organic solvent or mixture, thermodynamic from solid; PEG300, PEG400, propylene glycol, vitamin E TPGS, Gelucire 44/14, castor oil hydrogenated, Capmul MCM NF, Capmul MCM EP, Kolliphor HS-15, Kolliphor EL, Labrasol, Transcutol HP; approx. 24 hours
Method: For these analyses, Form D or Form C was mixed with 0.5 or 1.0 mL of solvents and equilibrated for approximately 24 hours. The mixture was filtered through 0.45 μm centrifuge filters.
As expected, the compound was not easily ionized at physiologically relevant pH. […] In addition, these excipients included surfactants, co-solvents, and lipids which are amenable for use in self-emulsifying drug delivery systems (SEDDS). The XRD pattern of the starting material was maintained for each sample after equilibrium.

With `CC[C@H](C)C(=O)N1CCC(NC(=O)Nc2ccc(OC(F)(F)F)c(F)c2)CC1` [Formula (I), (S)-1-(3-fluoro-4-(trifluoromethoxy)phenyl)-3-(1-(2-methylbutanoyl)piperidin-4-yl)urea] the “time without visual precipitation in PEG300” value ([1]; 100 mg/mL in PEG300, room temperature) was 9 days, the “precipitation from PEG300” value ([1]; 200 mg/mL in PEG300) was “readily precipitated overnight” and the solubility thermodynamic [2] was greater than 20 mg/mL.
